From US20240409536A1, “COMPOUNDS AND METHODS FOR MODULATING SPLICING” (REMIX THERAPEUTICS INC., priority 2021, published 2024)

What was measured:
[1] = tested on: Target C; test: HiBiT protein abundance assay, Target C (K562 HiBiT knock-in cells); format: cell-based, human; details: 24 hours
Summary of the method: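 K562 knock-in cells (10000/well, IMDM+1% FBS) treated 24 h at 37 °C with 10-point 3-fold dilutions, top final 10 μM, DMSO ≤0.25%. HiBiT lytic luminescence read; response normalized to unmodified K562 and DMSO-treated controls. IC50 interpolated at 50% abundance by four-parameter logistic fit.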

[2] = tested on: K562 cells; test: Cell Titer Glo 2.0 cell viability assay in K562 cells; details: 72 hours
[3] = tested on: Target C mRNA; test: Gene panel canonical junction qPCR assay, Target C CJ mRNA decrease; format: cell-based; details: Homo sapiens, canonical junction qPCR, read-out: Target C IC50 (decrease in CJ mRNA levels)
Summary of the method: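 A673 or K562 cells treated with compound; canonical exon-exon junction mRNA quantified by cDNA synthesis and RT-qPCR with junction-spanning primer/probe, normalized to GAPDH, GUSB or PPIA and DMSO (2^(−ΔΔCt)). Percent response from set ΔCt assay windows fitted to 4-parameter logistic; IC50 for CJ decrease.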

[4] = tested on: HiBiT-tagged HTT protein; test: HiBiT protein abundance assay, HTT (K562 HiBiT knock-in cells); format: cell-based, human; details: 24 hours
Summary of the method: (§1)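 K562 cells with endogenous HiBiT knock-in tag, 10-point 3-fold dilutions (top 10 μM final, ≤0.25% DMSO), 24 h at 37 °C. Lytic Nano-Glo HiBiT luminescence, normalized to DMSO and unmodified K562 baselines; IC50 is concentration giving 50% protein abundance from four-parameter fit.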

[5] = tested on: HiBiT-tagged MYB protein; test: HiBiT protein abundance assay, MYB (K562 HiBiT knock-in cells); format: cell-based, human; details: 24 hours
Summary of the method: as §1

Compound | IC50 [1] [nM] | Viability [2] | IC50 [3] [nM] | IC50 [4] [nM] | IC50 [5] [nM]
CN[C@@H]1CCN(c2ccc(C(=O)Nc3cc(F)c4nc(C)cn4c3)c3nccnc23)C1 (single isomer, unassigned) [Compound 193, N-{8-fluoro-2-methylimidazo[1,2-a]pyridin-6-yl}-8-[3-(methylamino)pyrrolidin-1-yl]quinoxaline-5-carboxamide] | 1000 to 10000 | A (A represents <100 nM) | > 10000 | 1000 to 10000 | < 100
CN[C@H]1CCN(c2ccc(C(=O)Nc3cc(F)c4nc(C)cn4c3)c3nccnc23)C1 (single isomer, unassigned) [Compound 194, N-{8-fluoro-2-methylimidazo[1,2-a]pyridin-6-yl}-8-[3-(methylamino)pyrrolidin-1-yl]quinoxaline-5-carboxamide] | 100 to 1000 | A (A represents <100 nM) | 1000 to 10000 | 1000 to 10000 | < 100
Cc1cn2nc(NC(=O)c3ccc(N4CCNCC4)c4ccnnc34)cc(C)c2n1 [Compound 100] | 100 to 1000 | B (B represents 100-1000 nM) | 100 to 1000 | 100 to 1000 | 100 to 1000
Cc1cn2cc(NC(=O)c3ccc(N4CCNC5(CC5)C4)c4ccnnc34)cc(F)c2n1 [Compound 105] | 1000 to 10000 | B (B represents 100-1000 nM) | > 10000 | 1000 to 10000 | 100 to 1000
Cc1cn2cc(NC(=O)c3ccc(N4C[C@H]5CC[C@@H](C4)N5)c4ccnnc34)cc(F)c2n1 [Compound 108] | > 10000 | – | 1000 to 10000 | 1000 to 10000 | 100 to 1000
Cc1cn2nc(NC(=O)c3ccc(N4CCNCC4)c4ccnnc34)cc2c(C)n1 [Compound 123] | 1000 to 10000 | C (C represents 1000-9999 nM) | 1000 to 10000 | 1000 to 10000 | 1000 to 10000
Cc1cn2cc(NC(=O)c3ccc(N4CCNCC4)c4ccnnc34)cc(C)c2n1 [Compound 125] | 1000 to 10000 | B (B represents 100-1000 nM) | 1000 to 10000 | 1000 to 10000 | 100 to 1000
O=C(Nc1cn[nH]c1)c1ccc(N2CCNCC2)c2ccnnc12 [Compound 126] | > 10000 | – | > 10000 | > 10000 | > 10000
Cc1cn2cc(NC(=O)c3ccc(N4CCN(C)CC4)c4ccnnc34)cc(F)c2n1 [Compound 127] | 1000 to 10000 | C (C represents 1000-9999 nM) | 1000 to 10000 | 1000 to 10000 | 100 to 1000
Cc1cn2cc(NC(=O)c3ccc(N4CCNC(C)C4)c4ccnnc34)cc(F)c2n1 (stereo not shown) [Compound 128] | 100 to 1000 | B (B represents 100-1000 nM) | 1000 to 10000 | 100 to 1000 | < 100
CCC1CN(c2ccc(C(=O)Nc3cc(F)c4nc(C)cn4c3)c3nnccc23)CCN1 (stereo not shown) [Compound 130] | 1000 to 10000 | B (B represents 100-1000 nM) | – | 1000 to 10000 | < 100
Cc1cn2cc(NC(=O)c3ccc(N4CC5(CNC5)C4)c4ccnnc34)cc(F)c2n1 [Compound 131] | 1000 to 10000 | B (B represents 100-1000 nM) | 1000 to 10000 | 100 to 1000 | < 100
Cc1cn2cc(NC(=O)c3ccc(N4CCC(N5CCCC5)C4)c4ccnnc34)cc(F)c2n1 (stereo not shown) [Compound 133] | 1000 to 10000 | C (C represents 1000-9999 nM) | 1000 to 10000 | 1000 to 10000 | 100 to 1000
Cc1cn2cc(NC(=O)c3ccc(N4CCC(N(C)C)C4)c4ccnnc34)cc(F)c2n1 (stereo not shown) [Compound 134] | 1000 to 10000 | B (B represents 100-1000 nM) | 1000 to 10000 | 1000 to 10000 | < 100
Cc1cn2cc(NC(=O)c3ccc(N4CCC(N(C)C)CC4)c4ccnnc34)cc(F)c2n1 [Compound 137] | 100 to 1000 | A (A represents <100 nM) | 100 to 1000 | 100 to 1000 | < 100
Cc1cn2cc(NC(=O)c3ccc(N4CCC(NC(C)(C)C)CC4)c4ccnnc34)cc(F)c2n1 [Compound 138] | 1000 to 10000 | C (C represents 1000-9999 nM) | 1000 to 10000 | 1000 to 10000 | 100 to 1000
Cc1cn2cc(NC(=O)c3ccc(C4CCN(C)CC4)c4ccnnc34)cc(F)c2n1 [Compound 140] | > 10000 | B (B represents 100-1000 nM) | > 10000 | 100 to 1000 | < 100
CCN1CCC(c2ccc(C(=O)Nc3cc(F)c4nc(C)cn4c3)c3nnccc23)CC1 [Compound 141] | 1000 to 10000 | C (C represents 1000-9999 nM) | 1000 to 10000 | 1000 to 10000 | < 100
Cc1cn2cc(NC(=O)c3ccc(N4CCN[C@H](C)C4)c4ccnnc34)cc(F)c2n1 [Compound 146] | 1000 to 10000 | A (A represents <100 nM) | > 10000 | 100 to 1000 | < 100
Cc1cn2cc(NC(=O)c3ccc(N4CCN(C)[C@H](C)C4)c4ccnnc34)cc(F)c2n1 [Compound 149] | 1000 to 10000 | B (B represents 100-1000 nM) | 1000 to 10000 | 1000 to 10000 | < 100
Cc1cn2cc(NC(=O)c3ccc(N4CCN(C)[C@@H](C)C4)c4ccnnc34)cc(F)c2n1 [Compound 150] | 1000 to 10000 | B (B represents 100-1000 nM) | 1000 to 10000 | 1000 to 10000 | 100 to 1000
CC[C@@H]1CN(c2ccc(C(=O)Nc3cc(F)c4nc(C)cn4c3)c3nnccc23)CCN1 [Compound 151] | 1000 to 10000 | B (B represents 100-1000 nM) | > 10000 | 1000 to 10000 | < 100
CC[C@H]1CN(c2ccc(C(=O)Nc3cc(F)c4nc(C)cn4c3)c3nnccc23)CCN1 [Compound 152] | > 10000 | B (B represents 100-1000 nM) | > 10000 | 1000 to 10000 | < 100
Cc1cn2cc(NC(=O)c3ccc(N4CCN5CCC[C@@H]5C4)c4ccnnc34)cc(F)c2n1 [Compound 153] | 1000 to 10000 | B (B represents 100-1000 nM) | 1000 to 10000 | 1000 to 10000 | < 100
Cc1cn2cc(NC(=O)c3ccc(N4CCN5CCC[C@H]5C4)c4ccnnc34)cc(F)c2n1 [Compound 154] | 1000 to 10000 | B (B represents 100-1000 nM) | 1000 to 10000 | 1000 to 10000 | < 100
Cc1cn2cc(NC(=O)c3ccc(N(C)[C@@H]4C[C@H]5CC[C@@H](C4)N5)c4ccnnc34)cc(F)c2n1 [Compound 156] | > 10000 | – | > 10000 | > 10000 | 1000 to 10000
Cc1cn2cc(NC(=O)c3ccc(N4C[C@@H](C)N[C@@H](C)C4)c4nccnc34)cc(F)c2n1 [Compound 186, 8-(3,5-dimethylpiperazin-1-yl)-N-{8-fluoro-2-methylimidazo[1,2-a]pyridin-6-yl}quinoxaline-5-carboxamide] | 1000 to 10000 | – | > 10000 | 1000 to 10000 | < 100
